Test results reported in patent US20230183239A1, “ECTONUCLEOTIDE PYROPHOSPHATASE-PHOSPHODIESTERASE 1 (ENPP-1) INHIBITORS AND USES THEREOF” (AbbVie Inc., priority 2017, published 2023).
Where two headings read alike, the source gives them in different places.

How the values were obtained:
Assay type in all cases: biochemical
ENPP1 [1] = target: T1, ENPP1 (Homo sapiens, UniProt P22413); experiment: ENPP1 enzyme assay with cGAMP substrate (AMP-Glo); design: purchased R&D Systems; conditions: for inhibition at 1 µM: read-out: cGAMP: % Inhibition at 1 µM; for inhibition at 10 µM: 10 µM compound
T1 sequence (P22413 1-925): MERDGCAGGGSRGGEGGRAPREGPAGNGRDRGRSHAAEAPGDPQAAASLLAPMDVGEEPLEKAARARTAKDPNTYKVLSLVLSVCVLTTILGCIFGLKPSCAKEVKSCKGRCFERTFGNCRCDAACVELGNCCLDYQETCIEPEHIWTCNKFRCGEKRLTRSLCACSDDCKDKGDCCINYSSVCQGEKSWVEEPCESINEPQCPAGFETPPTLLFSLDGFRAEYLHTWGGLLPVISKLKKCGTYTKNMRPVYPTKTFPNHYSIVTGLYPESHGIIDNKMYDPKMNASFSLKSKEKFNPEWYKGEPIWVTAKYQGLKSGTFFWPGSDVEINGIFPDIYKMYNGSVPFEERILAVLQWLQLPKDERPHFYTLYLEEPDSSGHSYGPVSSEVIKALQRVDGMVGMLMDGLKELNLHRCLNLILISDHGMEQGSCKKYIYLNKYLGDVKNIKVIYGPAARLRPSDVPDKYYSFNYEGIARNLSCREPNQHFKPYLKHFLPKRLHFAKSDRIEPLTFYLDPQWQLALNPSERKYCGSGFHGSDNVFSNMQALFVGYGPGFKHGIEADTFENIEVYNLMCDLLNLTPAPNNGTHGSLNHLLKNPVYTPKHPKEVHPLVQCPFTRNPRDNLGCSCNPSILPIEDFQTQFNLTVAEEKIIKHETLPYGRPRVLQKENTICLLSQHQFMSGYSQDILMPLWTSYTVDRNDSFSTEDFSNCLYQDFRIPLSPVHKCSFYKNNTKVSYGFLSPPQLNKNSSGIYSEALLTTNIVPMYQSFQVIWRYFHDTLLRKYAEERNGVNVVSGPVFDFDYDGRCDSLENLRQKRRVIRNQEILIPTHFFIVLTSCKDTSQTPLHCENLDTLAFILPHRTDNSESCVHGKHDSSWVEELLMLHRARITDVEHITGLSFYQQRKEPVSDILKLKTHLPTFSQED
Description: Example B1: ENPP1 Enzyme Assay With cGAMP Substrate
Ectonucleotide pyrophosphatase/phosphodiesterase 1 (ENPP-1) is a transmembrane glycoprotein that hydrolyzes nucleotides and nucleotide derivatives with the formation of nucleoside-5’-monophosphates. […] The 5’-AMP formed from the reaction is detected using the AMP-Glo® Kit (Promega). The assay kit contains two reagents. The first reagent terminates the enzymatic reaction, removes ATP (using adenylyl cyclase), and converts 5’-AMP produced into ADP (using polyphosphate: AMP phosphotransferase). The second reagent converts ADP to ATP (using adenylate kinase) and generates light from ATP using the luciferin/luciferase reaction.
Different concentrations of ENPP1 inhibitors are pre-incubated with 5 ng/well of human ENPP-1 enzyme (R&D Systems) for 15 minutes at 37° C. The reaction is initiated by adding 20 µM 2’3’-cGAMP and incubating for 30 minutes at 37° C. The final assay reaction mixture contains a buffer of 50 mM Tris pH 8.0, 250 mM NaCl, 0.5 mM CaCl2, 1 µM ZnCl2 and 1% DMSO. At the end of the incubation, the reaction is stopped by adding 12 µl of AMP-Glo reagent-1 and mixing the reaction uniformly for 5 minutes, followed by incubation at room temperature for one hour. Then 25 µl of AMP Glo reagent-2 is added to the reaction, mixed uniformly with a pipette, and incubated at room temperature for one hour to convert the ADP formed from reagent-1 to ATP and light. The generated light is measured in a Perkin Elmer Victor® instrument.
(§1) The IC50 values for percent inhibition versus compound concentration are determined by fitting the inhibition curves using a four-parameter variable slope model in GraphPad Prism® software. Ki values are derived from the IC50 values using the Cheng-Prusoff equation: […]

ENPP1 [2] = target: T1, ENPP1; experiment: ENPP1 enzyme assay with TMP-pNP substrate; design: purchased R&D Systems; conditions: for Ki: Ki from IC50 by Cheng-Prusoff; for inhibition at 10 µM: read-out: TMP-pNP: % inhibition at 10 uM, 10 uM compound
Experimental: Example B2: ENPP1 Enzyme Assay With TMP-pNP Substrate
Ectonucleotide pyrophosphatase/phosphodiesterase 1 (ENPP-1) is a transmembrane glycoprotein that hydrolyzes nucleotides and nucleotide derivatives with the formation of nucleotide-5’-monophosphates. ENPP-1 hydrolyzes thymidine 5’monophosphate p-nitrophenyl ester (TMP-pNP) to nucleotide-5’-monophosphate and p-nitrophenol, which is a chromogenic product. The amount of p-nitrophenol product formed is measured using its absorbance at 405 nm, which is directly proportional to enzyme activity. Different concentrations of inhibitors are pre-incubated with 15 ng/well of human ENPP-1 enzyme (R&D Systems) for 15 minutes at 37° C. The reaction is initiated by adding 200 µM TMP-pNP and incubating for 10 minutes at 37° C. The final assay reaction mixture contains a buffer of 50 mM Tris pH 8.0, 250 mM NaCl, 0.5 mM CaCl2, 1 µM ZnCl2 and 1% DMSO. The amount of product formed is measured directly in a Tecan® spectrophotometer. Maximal activity control samples (containing enzyme, substrate, and buffer in the absence of ENPP1 inhibitors: MAX) and background control samples (containing enzyme, substrate, and buffer plus a fully inhibitory concentration (3 µM) of the reference ENPP1 Inhibitor, Example 333: MIN) are simultaneously evaluated in order to calculate the percent inhibition at each compound concentration as follows:
as §1, with “curves (percent inhibition versus inhibitor concentration)” for “curves”

ENPP1 [3] = target: T1, ENPP1; experiment: Substrate selectivity ratio, inhibition of cGAMP hydrolysis versus ATP hydrolysis; conditions: ratio Ki AMP-pNP / Ki cGAMP
Experimental: The selectivity ratios for inhibition of cGAMP hydrolysis versus ATP hydrolysis were then calculated as follows: […]

ENPP1 [4] = target: T1, ENPP1; experiment: ENPP1 enzyme assay with AMP-pNP substrate (hydrolysis of ATP analog)
Summary of the method: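 Human recombinant ENPP1 (60 ng/well) with 300 µM AMP-pNP in 50 mM Tris-HCl pH 8.5, 250 mM NaCl, 0.5 mM CaCl2, 1 µM ZnCl2, 0.1% DMSO, 20 min at 37 °C.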

ENPP1 [5] = target: T1, ENPP1; experiment: Indirect quantitation of 2',3'-cGAMP hydrolysis (AMP-Glo Assay kit)
[6] = cGAMP substrate, Ki from IC50 by Cheng-Prusoff, read-out: cGAMP: Ki
[7] = AMP-pNP substrate (ATP analog), Ki from IC50 by Cheng-Prusoff, read-out: ENPP1 Inhibition _AMP-pNP: Ki
[8] = cGAMP substrate, Ki from IC50 by Cheng-Prusoff, read-out: ENPP1 Inhibition -cGAMP: Ki

SMILES	Ki (ENPP1 [1]; [6])	Ki (ENPP1 [2])	Substrate Selectivity: Ki_AMP-pNP/Ki_cGAMP (ENPP1 [3])	Ki (ENPP1 [4]; [7])	Ki (ENPP1 [5]; [8])	inhibition at 10 µM (ENPP1 [2])	other results
COc1cc2nc(N)nc(N3CCC(CCNS(N)(=O)=O)CC3)c2cc1OC [Example 1, N-(2-(1-(2-amino-6,7-dimethoxyquinazolin-4-yl)piperidin-4-yl)ethyl)sulfamide]	< 0.1 µM	0.1 to 1 µM	41.7	0.1 to 1 µM	< 0.1 µM		
CNc1nc(N2CCC(CCNS(N)(=O)=O)CC2)c2cc(OC)c(OC)cc2n1 [Example 2, N-(2-(1-(6,7-dimethoxy-2-(methylamino)quinazolin-4-yl)piperidin-4-yl)ethyl)sulfamide]			>39.0	> 1 µM	< 0.1 µM	> 75%	inhibition at 1 µM (ENPP1 [1]; 1 µM compound, cGAMP substrate): > 75%
COc1cc2nc(N(C)C)nc(N3CCC(CCNS(N)(=O)=O)CC3)c2cc1OC [Example 3, N-(2-(1-(2-(dimethylamino)-6,7-dimethoxyquinazolin-4-yl)piperidin-4-yl)ethyl)sulfamide]					0.1 to 1 µM	50 to 75%	inhibition at 1 µM (ENPP1 [1]; 1 µM compound, cGAMP substrate): 25 to 50%
COc1cc2nc(-c3cccnc3)nc(N3CCC(CCNS(N)(=O)=O)CC3)c2cc1OC [Example 5, N-(2-(1-(6,7-dimethoxy-2-(pyridin-3-yl)quinazolin-4-yl)piperidin-4-yl)ethyl)sulfamide]			>24			50 to 75%	Ki (ENPP1 [1]): 0.1 to 1 µM; inhibition at 1 µM (ENPP1 [1]): 50 to 75%; Ki (ENPP1 [4]): > 1 µM; Ki (ENPP1 [5]): 0.1 to 1 µM
COc1cc2nc(-c3ccncc3)nc(N3CCC(CCNS(N)(=O)=O)CC3)c2cc1OC [Example 6, N-(2-(1-(6,7-dimethoxy-2-(pyridin-4-yl)quinazolin-4-yl)piperidin-4-yl)ethyl)sulfamide]	0.1 to 1 µM	> 1 µM			0.1 to 1 µM		inhibition at 1 µM (ENPP1 [1]): 25 to 50%
Cc1cncnc1N1CCC(CCNS(N)(=O)=O)CC1 [Example 17, N-(2-(1-(5-methylpyrimidin-4-yl)piperidin-4-yl)ethyl)sulfamide]					> 1 µM	< 25%	inhibition at 10 µM (ENPP1 [1]; cGAMP substrate): < 25%
NS(=O)(=O)NCCC1CCN(c2ccncn2)CC1 [Example 18, N-(2-(1-(pyrimidin-4-yl)piperidin-4-yl)ethyl)sulfamide]					> 1 µM	< 25%	
COc1cc2ncc(C#N)c(N3CCC(CCNS(N)(=O)=O)CC3)c2cc1OC [Example 20, N-(2-(1-(3-cyano-6,7-dimethoxyquinolin-4-yl)piperidin-4-yl)ethyl)sulfamide]	< 0.1 µM	< 0.1 µM	489	0.1 to 1 µM	< 0.1 µM		inhibition at 1 µM (ENPP1 [1]; 1 µM compound, cGAMP substrate): > 75%
Cn1cnc2ncnc(N3CCC(CCNS(N)(=O)=O)CC3)c21 [Example 22, N-(2-(1-(7-methyl-7H-purin-6-yl)piperidin-4-yl)ethyl)sulfamide]	< 0.1 µM	> 1 µM	>115	> 1 µM	< 0.1 µM		
NS(=O)(=O)NCCC1CCN(c2ncnc3nc[nH]c23)CC1 [Example 23, N-(2-(1-(9H-purin-6-yl)piperidin-4-yl)ethyl)sulfamide]					> 1 µM	< 25%	inhibition at 10 µM (ENPP1 [1]; cGAMP substrate): < 25%
Cn1cnc2c(N3CCC(CCNS(N)(=O)=O)CC3)ncnc21 [Example 24, N-(2-(1-(9-methyl-9H-purin-6-yl)piperidin-4-yl)ethyl)sulfamide]					> 1 µM	< 25%	
NS(=O)(=O)NCCC1CCN(c2ncnc3ccccc23)CC1 [Example 35, N-(2-(1-(quinazolin-4-yl)piperidin-4-yl)ethyl)sulfamide]	0.1 to 1 µM	> 1 µM			0.1 to 1 µM		inhibition at 10 µM (ENPP1 [1]; cGAMP substrate): > 75%
COc1cc2ncnc(N3CCN(CCNS(N)(=O)=O)CC3)c2cc1OC [Example 40, N-(2-(4-(6,7-dimethoxyquinazolin-4-yl)piperazin-1-yl)ethyl)sulfamide]			24.1				inhibition at 1 µM (ENPP1 [1]): > 75%; Ki (ENPP1 [4]): 0.1 to 1 µM; Ki (ENPP1 [5]): < 0.1 µM
